Source: PMC12564180 (International Journal of Molecular Sciences, 2025)

Columns and labels:
[1] = target: T1, CYP2C9 (Homo sapiens, UniProt P11712); experiment: Incubation of [3H]filapixant with human recombinant CYP2C9 (Supersomes); format: in vitro ADME; settings: 1 µM [3H]filapixant, CYP2C9, 60 min
T1 construct: purchased

[2] = target: T2, CYP2J2 (Homo sapiens, UniProt P51589); experiment: Incubation of filapixant with human recombinant CYP2J2 (Supersomes); format: in vitro ADME; settings: 1 µM [3H]filapixant, CYP2J2, 60 min
T2 construct: purchased
T2 sequence (P51589 1-502): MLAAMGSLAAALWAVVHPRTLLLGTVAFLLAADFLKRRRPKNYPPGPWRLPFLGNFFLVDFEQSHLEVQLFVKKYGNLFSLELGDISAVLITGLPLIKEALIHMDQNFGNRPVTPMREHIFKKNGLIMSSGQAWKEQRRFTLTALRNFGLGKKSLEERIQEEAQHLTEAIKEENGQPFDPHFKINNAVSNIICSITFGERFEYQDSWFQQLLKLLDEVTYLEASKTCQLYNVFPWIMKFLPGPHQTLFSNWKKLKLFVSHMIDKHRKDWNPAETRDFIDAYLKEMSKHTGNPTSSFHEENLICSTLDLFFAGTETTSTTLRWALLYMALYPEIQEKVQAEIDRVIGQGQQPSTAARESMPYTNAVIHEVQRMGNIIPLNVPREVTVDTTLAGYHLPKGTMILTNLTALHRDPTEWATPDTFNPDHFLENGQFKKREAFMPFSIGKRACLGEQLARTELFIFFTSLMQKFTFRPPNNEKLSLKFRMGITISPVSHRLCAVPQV

[3] = target: T3, CYP1A1 (Homo sapiens, UniProt P04798); experiment: Incubation of filapixant with human recombinant CYP1A1 (Supersomes); format: in vitro ADME; settings: 1 µM [3H]filapixant, CYP1A1, 60 min
T3 construct: purchased
T3 sequence (P04798 1-512): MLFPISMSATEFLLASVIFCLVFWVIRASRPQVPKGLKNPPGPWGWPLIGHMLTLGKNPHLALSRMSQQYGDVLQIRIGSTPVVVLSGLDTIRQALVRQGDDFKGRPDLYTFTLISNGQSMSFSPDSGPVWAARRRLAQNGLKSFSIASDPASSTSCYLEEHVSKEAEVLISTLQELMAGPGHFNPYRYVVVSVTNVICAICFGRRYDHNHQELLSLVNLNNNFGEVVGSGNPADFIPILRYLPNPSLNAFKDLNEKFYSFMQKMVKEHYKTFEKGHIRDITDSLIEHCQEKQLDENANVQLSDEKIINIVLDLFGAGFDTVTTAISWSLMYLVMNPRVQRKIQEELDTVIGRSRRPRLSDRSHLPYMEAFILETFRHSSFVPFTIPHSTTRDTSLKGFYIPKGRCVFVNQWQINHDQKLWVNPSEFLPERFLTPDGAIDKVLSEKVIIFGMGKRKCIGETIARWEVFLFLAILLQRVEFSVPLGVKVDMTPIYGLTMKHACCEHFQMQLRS

[4] = Biotransformation and enzyme kinetics of filapixant in human liver microsomes; format: in vitro ADME
[5] = as above; format: in vitro ADME; settings: [3H]filapixant 1 µM, pooled human liver microsomes, 1 h of incubation, n = 1
Experimental: (§1) The incubations were analyzed by high-performance liquid chromatography (HPLC) with tandem mass spectroscopy (MS/MS) followed by off-line radioactivity detection to generate metabolite profiles and elucidate or confirm the structures of the metabolites formed.

[6] = target: T4, CYP2C19 (Homo sapiens, UniProt P33261); experiment: Incubation of [3H]filapixant with human recombinant CYP2C19 (Supersomes); format: in vitro ADME; settings: 1 µM [3H]filapixant, CYP2C19, 60 min
T4 construct: purchased

[7] = target: T5, CYP3A4 (Homo sapiens, UniProt P08684); experiment: Incubation of filapixant with human recombinant CYP3A4 (Supersomes); format: in vitro ADME; settings: for Remaining drug and formation of metabolites, Peak Area: 1 µM [3H]filapixant, CYP3A4, 60 min
T5 construct: purchased

[8] = Biotransformation of [3H]filapixant in human hepatocytes; format: in vitro ADME; settings: [3H]filapixant 1 µM, 4 h of incubation, range in three batches
Experimental: as §1

[9] = insect, 1 h, 1 µM
[10] = test system: CYP3A4; experiment: Depletion of 1 µM filapixant in human hepatocytes in absence and presence of CYP3A4 selective and pan-CYP inhibitors; format: in vitro ADME; settings: human, probe filapixant (1 µM, non-labeled), read-out: % of control CLint inhibited
[11] = as above; format: in vitro ADME; settings: 1 µM filapixant, in presence of the inhibitor
[12] = Incubation of 1 µM [3H]filapixant in human liver microsomes with CYP isoform-selective inhibitors; format: in vitro ADME
[13] = patients; cited from earlier work

T5 sequence (P08684 whole entry): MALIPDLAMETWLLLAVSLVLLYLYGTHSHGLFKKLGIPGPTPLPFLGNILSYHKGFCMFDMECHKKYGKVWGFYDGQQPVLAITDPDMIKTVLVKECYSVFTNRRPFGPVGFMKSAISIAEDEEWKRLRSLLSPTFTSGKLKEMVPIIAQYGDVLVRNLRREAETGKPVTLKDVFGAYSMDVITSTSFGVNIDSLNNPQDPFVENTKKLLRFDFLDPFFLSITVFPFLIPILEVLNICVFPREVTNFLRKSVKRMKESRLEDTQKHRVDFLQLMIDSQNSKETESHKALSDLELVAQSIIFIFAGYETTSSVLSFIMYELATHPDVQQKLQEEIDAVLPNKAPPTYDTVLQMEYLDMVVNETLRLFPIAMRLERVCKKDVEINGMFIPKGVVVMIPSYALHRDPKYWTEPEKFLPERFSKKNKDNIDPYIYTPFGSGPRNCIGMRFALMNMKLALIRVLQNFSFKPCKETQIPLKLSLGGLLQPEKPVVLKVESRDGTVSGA
T4 sequence (P33261 whole entry): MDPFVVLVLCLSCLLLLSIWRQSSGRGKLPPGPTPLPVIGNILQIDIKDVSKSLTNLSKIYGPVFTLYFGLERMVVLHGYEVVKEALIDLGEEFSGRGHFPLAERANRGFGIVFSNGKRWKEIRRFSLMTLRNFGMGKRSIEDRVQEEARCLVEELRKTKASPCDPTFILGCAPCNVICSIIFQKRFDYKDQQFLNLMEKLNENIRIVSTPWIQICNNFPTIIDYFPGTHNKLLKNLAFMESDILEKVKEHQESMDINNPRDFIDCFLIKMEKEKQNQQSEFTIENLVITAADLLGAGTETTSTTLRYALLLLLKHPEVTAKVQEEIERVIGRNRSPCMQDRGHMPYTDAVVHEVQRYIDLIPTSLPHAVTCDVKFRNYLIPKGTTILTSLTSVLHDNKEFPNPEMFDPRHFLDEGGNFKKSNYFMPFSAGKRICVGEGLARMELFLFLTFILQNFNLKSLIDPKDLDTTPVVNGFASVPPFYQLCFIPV
T1 sequence (P11712 whole entry): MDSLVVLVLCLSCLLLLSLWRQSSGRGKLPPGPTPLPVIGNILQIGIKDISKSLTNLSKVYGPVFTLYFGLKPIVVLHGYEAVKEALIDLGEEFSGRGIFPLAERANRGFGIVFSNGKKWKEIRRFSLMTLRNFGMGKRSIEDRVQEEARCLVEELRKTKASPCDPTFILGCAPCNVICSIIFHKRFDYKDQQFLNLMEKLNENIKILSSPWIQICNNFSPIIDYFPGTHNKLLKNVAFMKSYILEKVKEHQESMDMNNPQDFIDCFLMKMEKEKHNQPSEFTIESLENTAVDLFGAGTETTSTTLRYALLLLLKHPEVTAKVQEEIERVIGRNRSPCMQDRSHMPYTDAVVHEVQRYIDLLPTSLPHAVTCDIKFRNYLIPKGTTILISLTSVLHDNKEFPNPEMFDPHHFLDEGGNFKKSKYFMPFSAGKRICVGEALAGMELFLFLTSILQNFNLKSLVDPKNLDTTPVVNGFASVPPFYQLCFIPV

With `CNC[C@@H](O)COc1cc(C(=O)N[C@H](C)c2cnc(C(F)(F)F)nc2)cc(-c2ncc(C)s2)c1` [M-8] the “Remaining drug and formation of metabolites, Peak Area” value (“Remaining drug and formation” for short) [1] was 0.2 % of Radioactivity, the “Remaining drug and formation” value [2] was 0.7 % of Radioactivity and the “Remaining drug and formation” value [3] was 0.7 % of Radioactivity. For the same compound, the “Vmax of metabolite formation” value ([4]; filapixant in human liver microsomes (0.5 mg/mL), 30 min incubation) was 4.34E+04 peak area/pmol CYP/min, the Km at 30 min ([4]; human, human liver microsomes, probe filapixant (substrate), read-out: Km,app of metabolite formation) was 28.5 µM and the “Recovery of filapixant and metabolite formation, Liver Microsomes” value [5] was 2.4 % of radioactivity. The “Remaining drug and formation” value [6] was 0.2 % of Radioactivity, the “Remaining drug and formation” value [7] was 3.4 % of Radioactivity and the “Vmax of metabolite formation” value ([7]; filapixant in recombinant human CYP3A4 (25 pmol/mL), 20 min incubation) was 2.48E+04 peak area/pmol CYP/min. For the same compound, the “Recovery of filapixant and metabolite formation, Hepatocytes” value [8] was 0–1.7 % of radioactivity.

For `Cc1cnc(-c2cc(OC[C@H](O)CN)cc(C(=O)N[C@H](C)c3cnc(C(F)(F)F)nc3)c2)s1` [M-11], the “Remaining drug and formation” value [9] was 0.2 % of Radioactivity, the “Remaining drug and formation” value [7] was 1.9 % of Radioactivity and the “Recovery of filapixant and metabolite formation, Hepatocytes” value [8] was 0–0.3 % of radioactivity.

For `COCC(=O)O[C@]1(CCN(C)CCCc2nc3ccccc3[nH]2)CCc2cc(F)ccc2[C@@H]1C(C)C` [Mibefradil, mibefradil], the inhibition at 2 µM [10] was 95.6%, the “Reduction of apparent CLint of filapixant compared to untreated control” value [11] was 90 to 95% and the “Effect of inhibitor on drug depletion of [3H]filapixant and formation of metabolites” value [12] was “inhibited”.

For `CC[C@]1(C)C[C@@H](OC(=O)CSc2nnc(N)[nH]2)[C@]2(C)[C@H](C)CC[C@]3(CCC(=O)[C@H]32)[C@@H](C)[C@@H]1O` [azamulin], the “Effect of inhibitor on drug depletion of [3H]filapixant and formation of metabolites” value [12] was “inhibited”.

In the case of `Cc1cnc(-c2cc(O[C@@H]3CCOC3)cc(C(=O)N[C@H](C)c3cnc(C(F)(F)F)nc3)c2)s1` [eliapixant], the “Frequency of taste disturbances / taste-related side effects” value [13] is given as “considerably reduced compared to gefapixant”.

In the case of `COc1cc(C(C)C)c(Oc2cnc(N)nc2N)cc1S(N)(=O)=O` [gefapixant], the “Frequency of taste disturbances / taste-related side effects” value [13] is listed as “high frequency”.
